In brackets after ≈: the same amount, converted by molar mass. Like-named read-outs stand apart in the source and are kept apart here.
Tests used:
[1] = "rat human hepatic microsomes", NADPH with UDPGA or PBS
[2] = Hepatic microsomal stability, mouse; settings: for half-life at 1 μM: CD-1, mouse, pH 7.4
[3] = Hepatic microsomal stability, rat
[4] = Hepatic microsomal stability, human; settings: for half-life at 1 μM: human, pH 7.4
[5] = physchem
[6] = Multidose (three-day) pharmacokinetics in liquid diet in FVB mice; settings: FVB, mouse, in vivo
[7] = Multiple-dose (three-day) pharmacokinetic studies in FVB mice, drug in liquid diet; type: in vivo, mouse; settings: FVB, mouse, oral, 3 days in liquid diet, 40, 80, 130, 210 mg/kg/day
Procedure: Aminothiazole analog (e.g., 4.5 g of 27) was added to 15 mL of pure PEG400, vortexed and sonicated to ensure dissolution, then stored at −4° C. until needed. This highly concentrated PEG400 solution was subsequently diluted to final dosing concentrations, where the volume added was composed of homogenized solid rodent feed, cocoa (taste masking agent), and water. Wild-type FVB mice weigh ˜25 gm and typically drink 20 mL of liquid diet per day, allowing an estimate of daily drug consumption. A single dosing cohort consisted of three mice in a shared cage and liquid diet was provided at the start of the study in sufficient volume to last for the entire three-day trial (˜200 mL). At the end of the three-day dosing period, animals were euthanized by CO2, followed by collection of plasma (cardiac puncture) and removal of whole brain. Heparinized blood was centrifuged to separate plasma and both plasma and brain samples were stored at −80° C. prior to analysis. Plasma samples were prepared for analysis by precipitating proteins and reconstituting the remaining fraction with HPLC mobile phase. Brain samples were typically prepared by four-fold dilution with water after weighing, then homogenized using bead-beater or Polytron™ resulting in a highly concentrated solution that was further diluted with mobile phase as appropriate in preparation for bioanalytical analysis using LC-MS. Analysis was by LC-MS (Shimadzu dual-HPLC pumps, C18 analytical column, with detection using an Applied Biosystems API-4000 triple quadrupole mass spectrometer).
Ten compounds were selected from among the 34 2-AMTs for three-day multiple-dose PK studies at PO doses ranging from 40-210 mg/kg. Selection was based on diversity in potency, chemical structure, and a range of physicochemical properties. We used a liquid diet to facilitate easy drug administration, as well as serve as the daily source of all water and food. This approach was chosen because the mouse bioassay studies that would be used to assess drug effects on survival would be expected to run for 110 to 400 days, or more; gavage dosing for such a long period is not feasible and more stressful to mice. For the multiple-dose PK studies, 4.5 g of the 2-AMT analogs was added to 15 mL of pure PEG400, vortexed and sonicated to ensure dissolution, then stored at −4° C. until needed. This highly concentrated PEG400 solution was subsequently diluted to final dosing concentrations and added to the rodent liquid diet, cocoa (taste-masking agent), and water.
Wild-type FVB mice weigh ˜25 g and typically drink 20 mL of liquid diet per day, allowing an estimate of daily drug consumption. A single dosing cohort consisted of three mice in a shared cage and liquid diet was provided at the start of the study in sufficient volume (˜200 mL) to last for the entire three-day period. At the end of the dosing period, animals were euthanized by CO2, followed by collection of plasma (cardiac puncture) and removal of whole brain. Samples were processed and stored as described above for the 10 mg/kg single-dose studies.
Plasma and brain homogenate samples were extracted using a protein-precipitation method and analyzed by specific LC/MS/MS methods developed for each compound dosed in vivo. The analytical method accuracy and precision were monitored by analyzing quality control (QC) samples that were prepared by the same methods as the plasma or brain homogenate samples. The brain and plasma concentration data were used to calculate the maximal concentration (Cmax), area under the concentration-time curve (AUClast), and absolute bioavailability (% F) by noncompartmental analysis with sparse sampling performed using Phoenix WinNonlin 6.1 software (Pharsight, Mountain View, Calif.).

[8] = Single-dose pharmacokinetics in FVB mice (oral gavage, IV); settings: single oral dose, FVB mice, brain
[9] = test system: PrP^Sc in dividing ScN2a-cl3 cells; type: cell-based, mouse
[10] = Single-dose pharmacokinetic studies in female FVB mice (PO, IV, IP); type: in vivo, mouse; settings: single 40 mg/kg oral dose
Procedure: For in-vivo pharmacokinetic studies, compounds were dissolved in a formulation containing 20% propylene glycol, 5% ethanol, 5% labrosol, and 70% polyethylene glycol 400 (PEG400) and administered by oral gavage to female FVB mice weighing ˜25 g. At specified time points after dosing (0.25, 0.5, 1, 2, 4, 6, and 24 h), 2 animals were euthanized by CO2, and ˜1 mL blood (by cardiac puncture) and brain samples were collected. The heparinized blood samples were centrifuged to obtain plasma, which was stored at −80° C. until analysis. Brain samples were weighed, diluted […] with water, and then homogenized using a Precellys 24 tissue homogenizer. Brain homogenates (20% wt/vol) were stored at −80° C. until analysis. Pharmacokinetic protocols involving animals were all reviewed and approved by the UCSF institutional animal care and use committee (IACUC).
(§1) Plasma and brain homogenate samples were extracted using a protein-precipitation method and analyzed by specific LC/MS/MS methods developed for each compound dosed in vivo. The analytical method accuracy and precision were monitored by analyzing quality control (QC) samples that were prepared and treated using the same methods as calibration standards for the plasma or brain homogenate samples.
The data were used to calculate the area under the concentration-time curve (AUClast) by noncompartmental analysis with sparse sampling performed using Phoenix WinNonlin 6.1 software (Pharsight, Mountain View, Calif.).
Pharmacokinetic protocols employing mice were reviewed and approved by the UCSF Institutional Animal Care and Use Committee (IACUC). Female FVB mice, weighing approximately 25 g, were used for all in vivo pharmacokinetic studies. Mice were housed with free access to food and water, and were maintained on 12-h light/dark cycles for 1 week before dosing studies were initiated.
For the single-dose of 40 mg/kg, compounds were dissolved in a formulation containing 5% propylene glycol, […] α-tocopheryl polyethylene glycol 1000 succinate (TPGS) and 70% polyethylene glycol 400 (PEG400), and administered by oral gavage. Two animals per time point were used. At specified time points after dosing (0.5, 1, 2, 4, 6, and 24 h), animals were euthanized by CO2, and blood for plasma (by cardiac puncture) and brain samples were collected. The heparinized blood samples were centrifuged to obtain plasma. Brain samples were weighed, diluted 10-fold with water, and then homogenized using a Precellys 24 tissue homogenizer. The brain and plasma samples were flash-frozen on dry ice and then stored at −80° C. until analysis. For the single-dose administration at 10 mg/kg, compounds were dissolved in a formulation containing 20% propylene glycol, 5% ethanol, 5% labrosol, and 70% PEG400, and administered by oral gavage. Two animals per time point were used. At specified time points after dosing (0.25, 0.5, 1, 2, 4, 6, and 24 h), animals were euthanized by CO2, and blood for plasma (by cardiac puncture) and brain samples were collected. The heparinized blood samples were centrifuged to obtain plasma. Brain samples were weighed, diluted five-fold with water, and then homogenized using a Precellys 24 tissue homogenizer. The brain and plasma samples were flash-frozen on dry ice and then stored at −80° C. until analysis.
Compounds were administered through tail vein injection. Two animals per time point were used. At specified time points after dosing (5 min, 0.25, 0.5, 1, 2, 4, and 6 h), animals were euthanized by CO2. Blood and brain samples were obtained and processed as described above for the oral dosing at 40 mg/kg.
as §1, with “by” for “and treated using”, “as” for “as calibration standards for”, “samples. […]” for “samples.”

[11] = not given; remark: listed apart in the source
[12] = cell culture media, plasma or biological fluid
[13] = 40 mg/kg, Plasma Concentration (Css), three-day dosing in liquid diet, plasma
[14] = 80 mg/kg, Brain Concentration (Css), three-day dosing in liquid diet, brain
[15] = 80 mg/kg, Plasma Concentration (Css), three-day dosing in liquid diet, plasma
[16] = 130 mg/kg, Brain Concentration (Css), three-day dosing in liquid diet, brain
[17] = 130 mg/kg, Plasma Concentration (Css), three-day dosing in liquid diet, plasma
[18] = 210 mg/kg, Brain Concentration (Css), three-day dosing in liquid diet, brain
[19] = 210 mg/kg, Plasma Concentration (Css), three-day dosing in liquid diet, plasma
[20] = Brain and plasma concentrations, 40, 80, 130 and 210 mg/kg/day for 3 days
[21] = brain, read-out: brain concentration
[22] = plasma, read-out: plasma concentration
[23] = Table 29, 2-AMT analogs tested for potency, usually n = 3 or more

With `O=[N+]([O-])c1ccc(O)cc1` [4-Nitrophenol, reference compound] the “T1/2, control incubations” value [1] was 20 min.

With `COc1ccc(-c2csc(Nc3cc4ccccc4cn3)n2)cc1OC` [IND46, [4-(3,4-Dimethoxy-phenyl)-thiazol-2-yl]-isoquinolin-3-yl-amine] the half-life at 1 μM ([2]; liver microsomes) was 75 min, the half-life at 1 μM ([2]; mouse liver microsomes) was greater than 60 min and the “% remaining after a 60-min incubation, Mouse” value ([2]; mouse liver microsomes, 60-min incubation) was 58%. The “solubility in FaSSIF (in words)” value (fasted-state simulated intestinal fluid) was “lower solubility”, the “solubility at pH 2.0 (in words)” value (pH 2 (HCl) buffer) was “lower solubility” and the half-life at 1 μM ([3]; Sprague-Dawley, rat, […], pH 7.4) was greater than 60 min. The “% remaining after a 60-min incubation, Rat” value ([3]; […], 60-min incubation) was 61%, the “t1/2 Rat (extrapolated)” value ([3]; rat microsomes, * extrapolated) was 83* min and the “% remaining after a 60-min incubation, Human” value ([4]; human liver microsomes, 60-min incubation) was 83%. It also gave a half-life at 1 μM ([4]; human liver microsomes) greater than 60 min, a half-life at 1 μM ([4]; liver microsomes) greater than 60 min and a solubility ([5]; FaSSIF) of 5 µM (≈ 1.82 µg/mL). For the same compound, the solubility [5, 12] was 174 µM (≈ 63.2 µg/mL), the solubility ([5]; pH 2 (HCl) buffer, pH 2, simulated gastric fluid) was less than 1 µM and the solubility ([5]; pH 7.4 (phosphate) buffer, pH 7.4, aqueous buffer) was less than 1 µM. It also gave a concentration at 3 days ([6]; 40 mg/kg, Brain Concentration (Css), three-day dosing in liquid diet, brain) of 30 ± 30 nM, a concentration at 3 days [6, 13] of 50 ± 20 nM and a concentration at 3 days [6, 14] of 60 ± 70 nM. The concentration at 3 days [6, 15] was 60 ± 30 nM, the concentration at 3 days [6, 16] was 140 ± 40 nM and the concentration at 3 days [6, 17] was 80 ± 40 nM. It also gave a concentration at 3 days [6, 18] of 320 ± 110 nM, a concentration at 3 days [6, 19] of 140 ± 30 nM and a concentration at 3 days [6, 20] of no more than 1000 nM. It also gave a concentration at 3 days [7, 21] of no more than 1000 nM and a concentration at 3 days [7, 22] of no more than 1000 nM.

With `Cc1ccnc(Nc2nc(-c3ccccc3O)cs2)c1` [IND48, 2-[2-(4-Methyl-pyridin-2-ylamino)-thiazol-4-yl]-phenol] the “Brain exposure (AUClast) ranking” value [8] was “lowest AUClast values”, the EC50 ([9]; AMT analogs tested for potency) was greater than 10 µM and the EC50 [9, 23] was greater than 10 µM. The “AUC0->last, brain exposure” value [10] was “lowest AUClast values” and the melting point [11] was 249 to 250 °C.

With `Cc1ccnc(Nc2nc(-c3ccc(O)cc3)cs2)c1` [IND49, 4-[2-(4-Methyl-pyridin-2-ylamino)-thiazol-4-yl]-phenol] the “Brain exposure (AUClast) ranking” value [8] was “lowest AUClast values”, the EC50 ([9]; AMT analogs tested for potency) was greater than 10 µM and the EC50 [9, 23] was greater than 10 µM. For the same compound, the “AUC0->last, brain exposure” value [10] was “lowest AUClast values”.

Work on `c1ccc2cc(Nc3nc(-c4cc5ccccc5o4)cs3)ncc2c1` [IND91, (4-Benzofuran-2-yl-thiazol-2-yl)-isoquinolin-3-yl-amine] yielded a solubility [5, 12] of 151 µM (≈ 51.9 µg/mL), a concentration at 3 days [6, 13] of 260 ± 130 nM and a concentration at 3 days [6, 14] of 190 ± 90 nM. The concentration at 3 days [6, 15] was 1550 ± 360 nM, the concentration at 3 days [6, 16] was 260 ± 120 nM and the concentration at 3 days [6, 17] was 1740 ± 310 nM. For the same compound, the concentration at 3 days [6, 18] was 280 ± 40 nM, the concentration at 3 days [6, 19] was 3060 ± 560 nM and the concentration at 3 days [6, 20] was no more than 1000 nM. The concentration at 3 days [7, 21] was no more than 1000 nM, the concentration at 3 days [7, 22] was no more than 1000 nM and the EC50 ([9]; AMT analogs tested for potency) was 0.923 µM. For the same compound, the EC50 [9, 23] was 0.923 µM.

In the case of `Cc1ncc2n1-c1ccc(Cl)cc1C(c1ccccc1F)=NC2` [Midazolam, reference compound], the “T1/2, control incubations” value [1] is reported as 11 min.
